Consider ten compounds from patent publication US10093683B2, “Factor XIa inhibitors” (Merck Sharp & Dohme Corp., priority 2014, dated 2018).

Where two headings read alike, the source gives them in different places.

Assay [1] has as its target human Factor XIa (Homo sapiens (Human), UniProt P03951). Briefly: Factor XIa Assay. Format: biochemical. To be noted: read-out: FXIa Ki. A digest of the protocol: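 Ki derived from the dependence of Vo/Vi on inhibitor concentration under a competitive-inhibition model, after pre-equilibration of enzyme and inhibitor. Reaction: 40 pM human FXIa, 100 μM Z-Gly-Pro-Arg-AFC, HEPES 50 mM pH 7.4 with NaCl, CaCl2 and PEG 8000; run at room temperature or 37° C.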

The target in assay [2] is Human plasma kallikrein (Homo sapiens (Human), UniProt P03952). Briefly: Kallikrein Assay. The format is biochemical. To be noted: purified Human plasma kallikrein 0.5 nM, Acetyl-K-P-R-AFC, pH 7.4; Ki from IC50 by Cheng Prusoff. The method in brief:
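Purified human plasma kallikrein (0.5 nM final) with Acetyl-K-P-R-AFC substrate ([…]) in 50 mM HEPES pH 7.4, 150 mM NaCl, 5 mM CaCl2, 0.1% PEG 8000, after enzyme-inhibitor equilibration. Fluorescence (405 ex/510 em) under linear conditions; IC50 from four-parameter fit, converted to Ki by Cheng-Prusoff.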

Where [3] appears, read: purified human Factor XIa 40 pM, Z-Gly-Pro-Arg-AFC 100 μM, pH 7.4.

Human plasma kallikrein, sequence (P03952 391-638): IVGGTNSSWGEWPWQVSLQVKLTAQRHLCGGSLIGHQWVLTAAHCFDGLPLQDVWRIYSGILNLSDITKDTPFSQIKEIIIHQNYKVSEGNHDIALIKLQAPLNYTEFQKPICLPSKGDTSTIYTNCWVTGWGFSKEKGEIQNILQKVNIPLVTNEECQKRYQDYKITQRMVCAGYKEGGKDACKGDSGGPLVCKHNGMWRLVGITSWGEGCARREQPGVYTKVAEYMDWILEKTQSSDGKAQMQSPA
Human plasma kallikrein, sequence (P03952 20-390 partner): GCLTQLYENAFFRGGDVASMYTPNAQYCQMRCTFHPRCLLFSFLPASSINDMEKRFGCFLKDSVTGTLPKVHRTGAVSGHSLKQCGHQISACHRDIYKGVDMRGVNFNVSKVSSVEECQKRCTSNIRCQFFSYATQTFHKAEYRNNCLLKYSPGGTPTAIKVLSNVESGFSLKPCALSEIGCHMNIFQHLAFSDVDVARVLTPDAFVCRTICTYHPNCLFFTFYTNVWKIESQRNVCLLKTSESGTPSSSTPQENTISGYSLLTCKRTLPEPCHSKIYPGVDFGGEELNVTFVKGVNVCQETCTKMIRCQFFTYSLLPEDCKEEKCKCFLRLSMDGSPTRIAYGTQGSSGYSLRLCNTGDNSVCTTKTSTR
human Factor XIa, sequence (P03951 388-625): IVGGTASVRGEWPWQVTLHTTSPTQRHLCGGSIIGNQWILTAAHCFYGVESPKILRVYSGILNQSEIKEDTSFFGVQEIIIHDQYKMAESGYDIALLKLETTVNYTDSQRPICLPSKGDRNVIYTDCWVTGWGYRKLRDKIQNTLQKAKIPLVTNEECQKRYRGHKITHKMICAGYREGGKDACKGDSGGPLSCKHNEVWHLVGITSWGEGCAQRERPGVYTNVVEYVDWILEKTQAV
human Factor XIa, sequence (P03951 19-387 partner): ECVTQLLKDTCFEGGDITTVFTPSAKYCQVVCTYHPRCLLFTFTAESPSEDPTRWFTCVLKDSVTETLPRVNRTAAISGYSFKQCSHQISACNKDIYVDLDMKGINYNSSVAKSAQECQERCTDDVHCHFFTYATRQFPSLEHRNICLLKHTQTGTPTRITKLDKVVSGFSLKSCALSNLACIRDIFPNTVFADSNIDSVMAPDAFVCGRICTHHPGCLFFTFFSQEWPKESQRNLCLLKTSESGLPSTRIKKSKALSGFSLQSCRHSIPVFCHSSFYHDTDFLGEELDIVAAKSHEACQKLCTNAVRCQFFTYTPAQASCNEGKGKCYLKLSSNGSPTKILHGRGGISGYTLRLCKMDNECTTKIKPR

Usually Ki stands for the equilibrium dissociation constant of an inhibitor or competing ligand from its target. As to `COC(=O)Nc1ccc(C(=O)N[C@@H](CC(=O)NCC2CC2)C(=O)N2CCC[C@@]3(C2)OC(=O)Nc2ccc(Cl)cc23)cc1` [Example 99, methyl (4-(((S)-1-((R)-6-chloro-2-oxo-1,2-dihydrospiro[benzo[d][1,3]oxazine-4,3′-piperidin]-1′-yl)-4-((cyclopropylmethyl)amino)-1,4-dioxobutan-2-yl)carbamoyl)phenyl)carbamate], the values for the Ki in assay [1] (setting [3]) and in assay [2] were 40.4 nM and 17.6 nM, respectively.
On to `Cc1ncc(C(=O)N[C@@H](Cc2ccccc2)C(=O)N2CCC3(C2)OC(=O)Nc2ccc(Cl)cc23)cn1` (some centres unmarked) [Example 144], for which the inhibition constant (Ki) amounted to 5000 nM in assay [1] and 7.72 nM in assay [2].
In the same order, the values of `O=C(Nc1ccc(C(=O)N[C@@H](Cc2ccccc2)C(=O)N2CCC3(C2)OC(=O)Nc2ccc(Cl)cc23)cc1)OC[C@@H]1CCCO1` (stereo partly drawn) [Example 194, ((S)-tetrahydrofuran-2-yl)methyl (4-(((2S)-1-(6-chloro-2-oxo-1,2-dihydrospiro[benzo[d][1,3]oxazine-4,3′-pyrrolidin]-1′-yl)-1-oxo-3-phenylpropan-2-yl)carbamoyl)phenyl)carbamate] are 5.48 nM and 30.9 nM.
As to `COC(=O)Nc1ccc(C(=O)N[C@@H](CC(C)O)C(=O)N2CCC3(C2)OC(=O)Nc2ccc(Cl)cc23)cc1` (stereo partly drawn) [Example 110, methyl (4-(((2S)-1-((R)-6-chloro-2-oxo-1,2-dihydrospiro[benzo[d][1,3]oxazine-4,3′-pyrrolidin]-1′-yl)-4-hydroxy-1-oxopentan-2-yl)carbamoyl)phenyl)carbamate], the Ki turned out to be 52 nM in assay [1] (setting [3]) and 147 nM in assay [2].
Consider `CNC(=O)Nc1ccc(C(=O)N[C@@H](Cc2ccccc2)C(=O)N2CCC3(C2)OC(=O)Nc2ccc(Cl)cc23)cc1` (stereo partly drawn) [Example 189, N-((2S)-1-(6-chloro-2-oxo-1,2-dihydrospiro[benzo[d][1,3]oxazine-4,3′-pyrrolidin]-1′-yl)-1-oxo-3-phenylpropan-2-yl)-4-(3-methylureido)benzamide], for which the Ki worked out at 17.6 nM in assay [1] and 51.3 nM in assay [2].
In the case of `COC(=O)Nc1ccc(C(=O)N[C@@H](Cc2ccccc2)C(=O)N2CCC[C@@]3(C2)OC(=O)Nc2ccc(OC)cc23)cc1` [Example 9, methyl (4-(((S)-1-((R)-6-methoxy-2-oxo-1,2-dihydrospiro[benzo[d][1,3]oxazine-4,3′-piperidin]-1′-yl)-1-oxo-3-phenylpropan-2-yl)carbamoyl)phenyl)carbamate], the inhibition constant Ki in assay [1] (setting [3]) is 2 nM; in assay [2] it was 2.6 nM.
The matching figures for `COC(=O)Nc1ccc(C(=O)N[C@@H](CCSC)C(=O)N2CCC[C@@]3(C2)OC(=O)Nc2ccc(Cl)cc23)cc1` [Example 57, methyl (4-(((S)-1-((R)-6-chloro-2-oxo-1,2-dihydrospiro[benzo[d][1,3]oxazine-4,3′-piperidin]-1′-yl)-4-(methylthio)-1-oxobutan-2-yl)carbamoyl)phenyl)carbamate]: 4.9 nM and 1.43 nM.
As for `Nc1n[nH]c2cc(C(=O)N[C@@H](CC(=O)N3CCC3)C(=O)N3CCC[C@@]4(C3)OC(=O)Nc3ccc(Cl)cc34)ccc12` [Example 266], the Ki was 3.82 nM in assay [1] and 1.22 nM in assay [2].
As to `COC(=O)Nc1ccc(C(=O)NC(C[C@H]2CCCO2)C(=O)N2CCC[C@@]3(C2)OC(=O)Nc2ccc(Cl)c(F)c23)cc1` (single isomer, unassigned) [Example 117A], the inhibition constant (Ki) in assay [1] (setting [3]) turned out to be 18.7 nM; in assay [2], 10.6 nM.
Consider `O=C1COc2cc(C(=O)N[C@@H](Cc3ccccc3)C(=O)N3CCC4(C3)OC(=O)Nc3ccc(Cl)cc34)ccc2N1` (some centres unmarked) [Example 171], for which the inhibitory constant (Ki) worked out at 21.8 nM in assay [1] and 58 nM in assay [2].
